Measurements from US9629891B2, “Products and methods for aortic abdominal aneurysm” (NATIONWIDE CHILDREN'S HOSPITAL, INC., priority 2011, dated 2017).
“Also recorded” adds a separate entry of the source.

Assays:
RAW 264.7 [1] = test: Inflammatory mediator mRNA expression (qRT-PCR) in unstimulated RAW cells; assay type: cell-based; conditions: 10 μM DAPT for 6 days, vs untreated cells
Method: (§1) The aorta was isolated from experimental mice at day 28 of AngII infusion and immediately frozen in RNA-later (Ambion, Austin, Tex.). Abdominal aorta of equal length was cut from the abdominal region of ApoE^−/− and Notch1^+/−ApoE^−/− mice and RNA was extracted using RNAqueous kit (Ambion, Austin, Tex.). RAW cells (264.7) were obtained from ATCC (Manassas, Va.) and were cultured following the manufacturer's instructions. Naïve macrophages were collected from the peritoneal cavity of ApoE^−/− or Notch1^+/−ApoE^−/− mice by standard protocol [Hans et al., Cardiovasc. Pathol., 185:1894-902 (2011); Hans et al., Cardiovasc. Res., 78:429-439 (2008); Oumouna-Benachour et al., Circulation, 115:2442-2450 (2007)]. The isolated macrophages were cultured in RPMI containing 10% FCS for 3 days and were then treated with 100 nM LPS or diluent for 3 h in RPMI containing 1% FCS. Following treatment, the macrophages were washed with cold PBS and RNA was extracted using RNAeasy kit (Qiagen, Valencia, Calif.). cDNA was synthesized using SuperScript® VILO™ cDNA Synthesis Kit (Invitrogen, Carlsbad, Calif.) and subjected to qRT-PCR by SYBR Green RT-PCR kit (Applied Biosystems, Foster City Calif.) using Applied Biosystems 7500 Fast Real-Time PCR System (Foster City Calif.). qRT-PCR was performed in triplicate and fold change determined by standardization to 18S rRNA. Results were normalized to the controls. […]

RAW 264.7 [2] = test: Inflammatory mediator mRNA expression (qRT-PCR) in LPS-stimulated RAW cells; assay type: cell-based; conditions: pre-treatment with 10 μM DAPT, RAW cells with 100 ng/ml LPS for 3 hours, vs non-DAPT treated cells
Method: as §1

[3] = system: AngII-induced mouse model of AAA; test: Prophylactic Notch inhibition in AngII-induced mouse model of AAA; assay type: in vivo; conditions: ApoE−/− mice
Method: Mini osmotic pumps (Model 2004; Alzet, Cupertino, Calif.) containing AngII (1000 ng/min/kg) or saline were implanted subcutaneously in the neck region of anesthetized mice following standard protocol [Daugherty et al., J. Clin. Invest., 105:1605-1612 (2000)]. Three independent experiments were performed to determine the effect of Notch1 haploinsufficiency on the formation of AAA. In one of these three experiments the effects of pharmacological inhibition of Notch were tested on AAA formation. Mice (n=3) were injected with a Notch inhibitor, DAPT (10 mg/kg dissolved in 10% ethanol, 90% corn oil), three times a week subcutaneously starting one week before the implantation of osmotic pump and continuing for an additional 28 days until the mice were sacrificed, as explained for FIG. 6. [Loane et al., Nat. Med., 15:377-379 (2009); Lanz et al., J. Pharmacol. Exp. Ther., 305:864-871 (2003); Sjolund et al., J. Clin. Invest., 118:217-228 (2008)].
Two dimensional (B-mode) in vivo ultrasound images were obtained at weekly intervals after the implantation of osmotic pumps using a VisualSonics Vevo2100 imaging system (Ontario, Canada) with a mechanical transducer (MS400). After 28 days, the animals were euthanized and the aortas were dissected and fixed in 10% formalin. Minimum and maximum diameters of each vessel were determined by digitalized measurement (Zeiss AxioImager upright microscope with brightfield).
Histological examination of the abdominal aorta of the AngII and saline treated mutant mice was performed. The abdominal region of the aorta were embedded in paraffin and serial sections ([…]) were obtained. Sections were stained with hematoxylin and eosin (HE), elastin staining (Sigma, St. Louis, Mo.), and terminal deoxynucleotidyl transferasemediated dUTP nick-end labeling (TUNEL) staining (Roche, Indianapolis, Ind.). Statistical comparisons were performed using either Student's t-test or one-way ANOVA followed by the Bonferroni's Multiple Comparison Test. GraphPad PRISM V5.0 (San Diego, Calif.) was used for these comparisons and a P value<0.05 was considered significant. […]

[4] = system: AngII-induced mouse model of AAA; test: Therapeutic Notch inhibition (start day 3 or day 8) in AngII-induced mouse model of AAA, Example 7; assay type: in vivo; conditions: ApoE−/− mice
Text: In the study, mice were divided into four groups: • ApoE^−/− mice with AngII plus vehicle for 28 days (n=6); • ApoE^−/− mice with AngII plus DAPT (7 days prior to AngII infusion, n=6); • ApoE^−/− mice with AngII plus DAPT (3 days after AngII infusion, n=9); and • ApoE^−/− mice with AngII plus DAPT (8 days after AngII infusion, n=9).
These time periods were carefully selected to determine the effect of Notch inhibition on the formation of AAA before the onset of disease (−7 days), at day 3 (onset of inflammation) and day 8 (elastin degradation and cellular remodeling).
NOTCH inhibitor (DAPT; 10 mg/kg; […] in corn oil) given at day 3 and day 8 after the AngII infusion reduced the progression of active AAA in the mouse model.

[5] = system: AngII-induced mouse model of AAA; test: Progression of active AAA in AngII-induced mouse model, Example 8; assay type: in vivo
Method: Active aneurysm was introduced in ApoE^−/− mice (n=36) by administering AngII. DAPT (10 mg/kg; 3 times a week) was injected in these mice starting either 3 days (Group II; n=12) or 8 days (Group III; n=12) after AngII infusion. Group I (n=12) received vehicle (10% alcohol in corn oil) only. The time periods were chosen so that a small aortic dilation is established before DAPT is administered.
The increased collagen content in the aorta of ApoE^−/− mice in response to AngII provides stability to the tissue against sudden rupture.

[6] = AngII infusion 28 days, DAPT 10 mg/kg three times a week from one week before AngII, vs untreated ApoE−/− mice

C[C@H](NC(=O)Cc1cc(F)cc(F)c1)C(=O)N[C@H](C(=O)OC(C)(C)C)c1ccccc1 [DAPT, N—[N-(3,5-Difluorophenacetyl)-L-alanyl]-S-phenylglycine t-butyl ester]
expression of MCP-1, IL-6, TNF-α, CXCL-10, VEGF, iNOS, ICAM-1, and VCAM-1 (RAW 264.7 [1]): Decreased expression; also recorded: significantly decreased
expression of MCP-1, IL-6, TNF-α, CXCL-10, VEGF, iNOS, and ICAM-1 (RAW 264.7 [2]): Decreased expression; also recorded: significantly reduced
aortic diameter [3, 6]: statistically significant reduction
incidence of AAA [3, 6]: statistically significant reduction
histologic analysis of the aorta ([3]; AngII infusion, DAPT 10 mg/kg prophylactic, vs untreated mice): no evidence of abdominal aneurysm; also recorded: normal aortic wall architecture without infiltration of inflammatory cells
maximal abdominal aortic width at day 28 ([4]; AngII, DAPT treatment started at day 3 and day 8): significantly decreased
progression of active AAA ([4]; DAPT 10 mg/kg in corn oil given at day 3 and day 8 after AngII infusion): reduced
luminal expansion of the abdominal aorta ([5]; ApoE−/− mice, AngII, DAPT 10 mg/kg 3 times a week from day 3 (Group II) or day 8 (Group III), vs vehicle, echocardiography, p<0.05): significantly reduced
expression of MMP2 and MMP9 in the aortas ([5]; Group II and Group III vs Group I (vehicle), quantitative real-time PCR and immunohistochemistry): decreased
monocyte chemotactic protein-1 ([5]; Group III (DAPT from day 8)): not associated with increased monocyte chemotactic protein-1
newly synthesized tropoelastin and collagen staining ([5]; Group III (DAPT from day 8)): increased expression
macrophage content (CD-68) ([5]; Group III (DAPT from day 8) vs Group I (vehicle), marginal increase vs Group II): significantly less than Group I
elastin fragmentation and aortic remodeling ([5]; both groups (DAPT from day 3 or day 8), histology): prevented
